Data published in patent US20220396565A1 (Hoffmann-La Roche Inc., priority 2020, published 2022).
Structures can show the parent of a compound that is named as a salt. Where two headings read alike, the source gives them in different places.

System: Acinetobacter baumannii ATCC17978
Assay: Antimicrobial susceptibility testing: 90% growth inhibitory concentration (IC90) determination, Iso-Sensitest broth
Type: cell-based
Procedure, shortened: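 Growth at OD600 was monitored every 20 min for 16 h at 35±2 °C, with bacteria inoculated at ~5×10^(5) CFU/ml into Iso-Sensitest medium. Compounds were tested as 10-point twofold dilutions (e.g. 10–0.02 μM final). The 90% inhibitory concentration comes from the log-phase growth.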

[1] = 90% growth inhibitory concentration, Acinetobacter baumannii ATCC17978, Iso-Sensitest broth, read-out: ATCC 17978 IC90
[2] = Acinetobacter baumannii, ATCC17978, read-out: ATCC 17978 IC90

Cn1c(-c2ccc(OCC#N)c(F)c2F)cnc1C(=O)Nc1ccc(C(=O)N2CCN(C(=O)[C@@H]3CCCN3)CC2)c(Cl)c1 [Example 198, (S)-N-(3-chloro-4-(4-prolylpiperazine-1-carbonyl)phenyl)-5-(4-(cyanomethoxy)-2,3-difluorophenyl)-1-methyl-1H-imidazole-2-carboxamide 2,2,2-trifluoroacetate]
IC90 [1]: 30 nM

Cn1c(-c2ccc(OCC#N)c(F)c2F)cnc1C(=O)Nc1ccc(C(=O)N2CCN(C(=O)C3(O)CCNCC3)CC2)c(Cl)c1 [Example 207, N-(3-chloro-4-(4-(4-hydroxypiperidine-4-carbonyl)piperazine-1-carbonyl)phenyl)-5-(4-(cyanomethoxy)-2,3-difluorophenyl)-1-methyl-1H-imidazole-2-carboxamide 2,2,2-trifluoroacetate]
IC90 [1]: 50 nM

CN(C)CCN1CCN(C(=O)c2ccc(NC(=O)c3ncc(-c4ccc(OCC#N)c(Cl)c4)n3C)cc2Cl)CC1 [Example 269, 5-[3-Chloro-4-(cyanomethoxy)phenyl]-N-[3-chloro-4-[4-[2-(dimethylamino)ethyl]piperazine-1-carbonyl]phenyl]-1-methyl-imidazole-2-carboxamide trifluoroacetate]
IC90 [2]: 70 nM

Cn1c(-c2ccc(OCC#N)c(F)c2F)cnc1C(=O)Nc1ccc(C(=O)N2CCN(C(=O)[C@@H]3CCNC3)CC2)c(Cl)c1 [Example 199, (R)-N-(3-chloro-4-(4-(pyrrolidine-3-carbonyl)piperazine-1-carbonyl)phenyl)-5-(4-(cyanomethoxy)-2,3-difluorophenyl)-1-methyl-1H-imidazole-2-carboxamide 2,2,2-trifluoroacetate]
IC90 [1]: 40 nM

CCc1cc(NC(=O)c2ncc(-c3ccc(OC)cc3Cl)n2C)ccc1C(=O)N1CCN(CCN(C)C)CC1 [Example 277, 5-(2-chloro-4-methoxyphenyl)-N-(4-(4-(2-(dimethylamino)ethyl)piperazine-1-carbonyl)-3-ethylphenyl)-1-methyl-1H-imidazole-2-carboxamide]
IC90 [1]: 2300 nM

Cn1c(-c2ccc(OCC#N)c(F)c2F)cnc1C(=O)Nc1ccc(C(=O)N2CCN(C(=O)[C@@H]3C[C@H](O)CN3)CC2)c(Cl)c1 [Example 201, N-(3-chloro-4-(4-((2S,4S)-4-hydroxypyrrolidine-2-carbonyl)piperazine-1-carbonyl)phenyl)-5-(4-(cyanomethoxy)-2,3-difluorophenyl)-1-methyl-1H-imidazole-2-carboxamide formate]
IC90 [1]: 50 nM

COc1ccc(-c2cnc(C(=O)Nc3ccc(C(=O)N4CCN(C(=O)[C@@H]5C[C@@H](O)CN5)CC4)c(Cl)c3)n2C)c(F)c1F [Example 106, N-[3-chloro-4-[4-[(2S,4R)-4-hydroxypyrrolidine-2-carbonyl]piperazine-1-carbonyl]phenyl]-5-(2,3-difluoro-4-methoxy-phenyl)-1-methyl-imidazole-2-carboxamide trifluoroacetate]
IC90 [1]: 100 nM

Cn1c(-c2ccc(OCC#N)c(F)c2F)cnc1C(=O)Nc1ccc(C(=O)N2CCC(C(=O)N3CCOC(CN)C3)CC2)c(Cl)c1 (stereo not drawn) [Example 73, N-(4-(4-(2-(aminomethyl)morpholine-4-carbonyl)piperidine-1-carbonyl)-3-chlorophenyl)-5-(4-(cyanomethoxy)-2,3-difluorophenyl)-1-methyl-1H-imidazole-2-carboxamide 2,2,2-trifluoroacetate]
IC90 [1]: 60 nM

COc1ccc(-c2cnc(C(=O)Nc3ccc(C(=O)N4CCN(CCN(C)C)CC4)c(Cl)c3)n2C)c(F)c1F [Example 278, N-[3-chloro-4-[4-[2-(dimethylamino)ethyl]piperazine-1-carbonyl]phenyl]-5-(2,3-difluoro-4-methoxy-phenyl)-1-methyl-imidazole-2-carboxamide formate]
IC90 [1]: 80 nM

Cc1cc(NC(=O)c2ncc(-c3ccc(OCC#N)c(F)c3F)n2C)ccc1C(=O)N1CCN(C(=O)[C@@H]2CCNC2)CC1 [Example 203, (R)-5-(4-(cyanomethoxy)-2,3-difluorophenyl)-1-methyl-N-(3-methyl-4-(4-(pyrrolidine-3-carbonyl)piperazine-1-carbonyl)phenyl)-1H-imidazole-2-carboxamide 2,2,2-trifluoroacetate]
IC90 [1]: 90 nM

COc1ccc(-c2cnc(C(=O)Nc3ccc(C(=O)N4CCN(C(=O)C5(O)CCNCC5)CC4)c(Cl)c3)n2C)c(Cl)c1F [Example 113, 5-(2-chloro-3-fluoro-4-methoxy-phenyl)-N-[3-chloro-4-[4-(4-hydroxypiperidine-4-carbonyl)piperazine-1-carbonyl]phenyl]-1-methyl-imidazole-2-carboxamide formate]
IC90 [1]: 80 nM

Cn1c(-c2ccc(OCC#N)c(F)c2F)cnc1C(=O)Nc1ccc(C(=O)N2CCC(C(=O)N3CC[C@@H](N)C3)CC2)c(Cl)c1 [Example 80, (R)-N-(4-(4-(3-aminopyrrolidine-1-carbonyl)piperidine-1-carbonyl)-3-chlorophenyl)-5-(4-(cyanomethoxy)-2,3-difluorophenyl)-1-methyl-1H-imidazole-2-carboxamide formate]
IC90 [1]: 70 nM

Cn1c(-c2ccc(OCC#N)c(F)c2F)cnc1C(=O)Nc1ccc(C(=O)N2CCC(C(=O)N3CCSCC3)CC2)c(Cl)c1 [Example 76, N-(3-chloro-4-(4-(thiomorpholine-4-carbonyl)piperidine-1-carbonyl)phenyl)-5-(4-(cyanomethoxy)-2,3-difluorophenyl)-1-methyl-1H-imidazole-2-carboxamide]
IC90 [1]: 210 nM

Cc1cc(NC(=O)c2ncc(-c3ccc(OCC#N)c(F)c3F)n2C)ccc1C(=O)N1CCC(C(=O)N2CC(N)C2)CC1 [Example 79, N-(4-(4-(3-aminoazetidine-1-carbonyl)piperidine-l-carbonyl)-3-methylphenyl)-5-(4-(cyanomethoxy)-2,3-difluorophenyl)-1-methyl-1H-imidazole-2-carboxamide 2,2,2-trifluoroacetate]
IC90 [2]: 210 nM

Cc1cc(NC(=O)c2ncc(-c3ccc(OCC#N)c(F)c3F)n2C)ccc1C(=O)N1CCC(C(=O)N2CCOCC2)CC1 [Example 78, 5-(4-(cyanomethoxy)-2,3-difluorophenyl)-1-methyl-N-(3-methyl-4-(4-(morpholine-4-carbonyl)piperidine-1-carbonyl)phenyl)-1H-imidazole-2-carboxamide]
IC90 [1]: 120 nM

CCc1cc(NC(=O)c2ncc(-c3ccc(OC(C)C)c(F)c3)n2C)ccc1C(=O)N1CCN(CCN(C)C)CC1 [Example 276, N-(4-(4-(2-(dimethylamino)ethyl)piperazine-1-carbonyl)-3-ethylphenyl)-5-(3-fluoro-4-isopropoxyphenyl)-1-methyl-1H-imidazole-2-carboxamide]
IC90 [1]: 4020 nM

CN(C)CCN1CCN(C(=O)c2ccc(NC(=O)c3ncc(-c4ccc(OCC#N)c(F)c4Cl)n3C)cc2Cl)CC1 [Example 270, 5-[2-chloro-4-(cyanomethoxy)-3-fluoro-phenyl]-N-[3-chloro-4-[4-[2-(dimethylamino)ethyl]piperazine-1-carbonyl]phenyl]-1-methyl-imidazole-2-carboxamide]
IC90 [1]: 50 nM

CNCC(=O)N1CCN(C(=O)c2ccc(NC(=O)c3ncc(-c4ccc(OC)c(F)c4F)n3C)cc2Cl)CC1 [Example 105, N-[3-chloro-4-[4-[2-(methylamino)acetyl]piperazine-1-carbonyl]phenyl]-5-(2,3-difluoro-4-methoxy-phenyl)-1-methyl-imidazole-2-carboxamide trifluoroacetate]
IC90 [1]: 70 nM

Cn1c(-c2ccc(OCC#N)c(F)c2F)cnc1C(=O)Nc1ccc(C(=O)N2CCN(C(=O)[C@H]3CCNC3)CC2)c(Cl)c1 [Example 200, (S)-N-(3-chloro-4-(4-(pyrrolidine-3-carbonyl)piperazine-1-carbonyl)phenyl)-5-(4-(cyanomethoxy)-2,3-difluorophenyl)-1-methyl 1H-imidazole-2-carboxamide 2,2,2-trifluoroacetate]
IC90 [2]: 50 nM

CCc1cc(NC(=O)c2ncc(-c3ccc(OC(F)F)cc3)n2C)ccc1C(=O)N1CCN(CCN(C)C)CC1 [Example 275, 5-[4-(difluoromethoxy)phen-yl]-N-[4-[4-[2-(dimethylamino)ethyl]piperazine-1-carbonyl]-3-ethyl-phenyl]-1-methyl-imidazole-2-carboxamide]
IC90 [1]: 1520 nM

COc1ccc(-c2cnc(C(=O)Nc3ccc(C(=O)N4CCN(CCN(C)C)CC4)c(Cl)c3)n2C)cc1F [Example 274, N-[3-chloro-4-[4-[2-(dimethylamino)ethyl]piperazine-1-carbonyl]phenyl]-5-(3-fluoro-4-methoxy-phenyl)-1-methyl-imidazole-2-carboxamide formate]
IC90 [1]: 290 nM

Cn1c(-c2ccc(OCC#N)c(F)c2F)cnc1C(=O)Nc1ccc(C(=O)N2CCC(C(=O)N3CCN[C@@H](CO)C3)CC2)c(Cl)c1 [Example 81, (R)-N-(3-chloro-4-(4-(3-(hydroxymethyl)piperazine-1-carbonyl)piperidine-1-carbonyl)phenyl)-5-(4-(cyanomethoxy)-2,3-difluorophenyl)-1-methyl-1H-imidazole-2-carboxamide 2,2,2-trifluoroacetate]
IC90 [1]: 70 nM

CNCC(=O)N1CCN(C(=O)c2ccc(NC(=O)c3ncc(-c4ccc(OCC#N)c(F)c4F)n3C)cc2C)CC1 [Example 206, 5-(4-(cyanomethoxy)-2,3-difluorophenyl)-1-methyl-N-(3-methyl-4-(4-(methylglycyl)piperazine-1-carbonyl)phenyl)-1H-imidazole-2-carboxamide 2,2,2-trifluoroacetate]
IC90 [1]: 100 nM

Cc1cc(NC(=O)c2ncc(-c3ccc(OCC#N)c(F)c3F)n2C)ccc1C(=O)N1CCC(C(=O)N2CCS(=O)(=O)CC2)CC1 [Example 77, 5-(4-(cyanomethoxy)-2,3-difluorophenyl)-N-(4-(4-(1,1-dioxidothiomorpholine-4-carbonyl)piperidine-1-carbonyl)-3-methylphenyl)-1-methyl-1H-imidazole-2-carboxamide]
IC90 [1]: 170 nM
